Measured values published in patent publication US7005424B2, “Nucleic acid encoding an E1A gene product sensitizes HER-2/neu overexpressing cancer cells to chemotherapy” (priority 1996, dated 2006).
Starred links: 1 amine or outer side, 2 acyl side, 3 side chain; linkers in the order of their positions; H or OH if unused. Positions of bridges follow the written chain, without caps; N, C: chain ends. Non-standard residues stand in square brackets, D forms with d. Residues, ends and D or L forms follow the SMILES beside them. Chains are numbered I, II in the order given. Actinocin(9to1) = Cc1c2oc3c(C)ccc(C(=O)[*:1])c3nc-2c(C(=O)[*:2])c(N)c1=O; NMeV = CN[C@H](C(=O)O)C(C)C; Sar = CNCC(=O)O

How the values were obtained:
[1] = in vivo; cited from earlier work
B.E1A1.Hy = assay: MTT assay, taxol on rat fibroblasts with various neu and E1A expression; format: cell-based; details: taxol 0.1–10 μM; compared with B104-1-1, B.neo, B.E1A1.D1
Method: FIG. 30B. Effect of taxol (0.01–100 μM) on the cell growth of rat fibroblast with various HER-2/neu and E1A expression. […] Bars, SD.
In order to examine the effects of taxol on cell growth rat fibroblasts with various neu and E1A expression were grown in varying concentrations of taxol 0.01–100 μM. The cell lysates were subsequently run through 8% SDS-PAge and blotted with anti-p185 and anti-E1A antibodies (FIG. 30A). The effects on cell growth were measured using the MTT assay as described earlier.

MDA-MB-435 cells = assay: MTT assay, Ad.E1A and Taxol; format: cell-based; details: low neu expressing cells
Method: The percentage of cell growth was calculated by defining the absorption of cells not treated with taxol or E1A as 100%. Bars, SD.
FIG. 34. […] The percentage of cell growth was calculated by defining the absorption of cells not treated with taxol or E1A as 100%. Bars, SD.
Taxol was given from 0.1 μM to 100 μM (FIGS. 33B and 33D).

| SMILES | dose excreted or detected intact in the urine [1] | inhibition of cell growth (MTT) (B.E1A1.Hy) | sensitivity to taxol alone (MDA-MB-435 cells) |
| --- | --- | --- | --- |
| Cc1c2oc3c(C)ccc(C(=O)N[C@@H]4C(=O)N[C@H](C(C)C)C(=O)N5CCC[C@H]5C(=O)N(C)CC(=O)N(C)[C@@H](C(C)C)C(=O)O[C@@H]4C)c3nc-2c(C(=O)N[C@@H]2C(=O)N[C@H](C(C)C)C(=O)N3CCC[C@H]3C(=O)N(C)CC(=O)N(C)[C@@H](C(C)C)C(=O)O[C@@H]2C)c(N)c1=O [Actinomycin D] (I: T[dV]P[Sar][NMeV] / II: T[dV]P[Sar][NMeV]; ester I:1-I:C, II:1-II:C; linker I:N-II:N via Actinocin(9to1)) | 10% |  |  |
| CC(=O)O[C@H]1C(=O)[C@@]2(C)[C@H]([C@H](OC(=O)c3ccccc3)[C@]3(O)C[C@H](OC(=O)[C@H](O)[C@@H](NC(=O)c4ccccc4)c4ccccc4)C(C)=C1C3(C)C)[C@]1(OC(C)=O)CO[C@@H]1C[C@@H]2O [Taxol] |  | highest inhibition of cell growth | more sensitive to taxol alone |
| CC[C@]1(O)C[C@@H]2CN(CCc3c([nH]c4ccccc34)[C@@](C(=O)OC)(c3cc4c(cc3OC)N(C)[C@H]3[C@@](O)(C(=O)OC)[C@H](OC(C)=O)[C@]5(CC)C=CCN6CC[C@]43[C@@H]65)C2)C1 [Vinblastine] | Approximately 15% |  |  |
